Reference: patent publication US12569506B2, “Methods of treating osteonecrosis with LLP2A-bisphosphonate compounds” (The Regents of the University of California, priority 2016, dated 2026)
“Also recorded” adds a separate entry of the source.

Tested on: dexamethasone-treated mice
Experiment: 30 and 45 day prevention study: incidence of glucocorticoid-induced osteonecrosis
Type: in vivo, BALB/c mice
Conditions: 30 or 45 days; Dex + LLP2A-Ale 250 or 500 μg/kg, or Dex + 40 μg/kg hPTH five times a week (FIG. 12)
Experimental: FIG. 12. Reduction in incidence of glucocorticoid-induced osteonecrosis in mice treated with recombinant LLP2A-Ale. Mice were randomized into placebo (PL) (fresh water), dexamethasone (Dex) 4 mg/l in drinking water, Dex+250 μg/kg LLP2A-Ale, Dex+500 μg/kg LLP2A-Ale, or Dex+40 μg/kg hPTH (1-34) groups for a 30 day treatment period or a 45 day treatment period. The incidence of Dex-induced osteonecrosis was 57% on day 30 and 73% on day 45.
The efficacy of LLP2A-Ale and hPTH (1-34) was evaluated over a 30 and 45 day study using a mouse model of glucocorticoid-induced osteonecrosis. Seven week-old male BALB/c mice were randomized into Placebo group (fresh water), glucocorticoid only (4 mg/L dexamethasone (Dex) in drinking water), Dex+250 μg/kg LLP2A-Ale, Dex+500 μg/kg LLP2A-Ale, or Dex+40 μg/kg hPTH (administered five times a week) for 30 or 45 days. At day 30 or 45, the mice were sacrificed. Study endpoints included histological evidence of osteonecrosis, bone mass, and prevalent blood vessels (CD31 and Endomucin expression) in the distal femur, and was performed as set forth in Example 2. Non-parametric Kruskal-Wallis tests were used to determine the differences between the groups.

For `Cc1ccccc1NC(=O)Nc1ccc(CC(=O)N[C@@H](CCCCNC(=O)/C=C/c2cccnc2)C(=O)N[C@@H](CCCC(=O)O)C(=O)NC2(C(=O)NCCOCCOCCNC(=O)CCC(=O)NCCOCCOCCNC(=O)CCC(=O)N[C@@H](CCCCNC(=O)[C@H](N)CSC3CC(=O)N(CC4CCC(C(=O)NCCCC(O)(P(=O)(O)O)P(=O)(O)O)CC4)C3=O)C(N)=O)CCCCC2)cc1` (stereo partly shown) [LLP2A-Ale], the “Prevalence/incidence of glucocorticoid-induced osteonecrosis lesions (in words)” value was “prevented incident GC-induced osteonecrosis lesions; also recorded: reduced the incidence and severity of osteonecrosis; also recorded: prevented glucocorticoid-induced osteonecrotic lesions”.
